Tests used:
[1] = system: HT29 colon cancer cells; experiment: Colony formation assay; type: cell-based, human; details: three weeks
Description: (§1) Base agar (0.6%) was placed at the bottom of the 6-well culture plate. After 30 min at room temperature, top agar (0.4%) mixed with HT29 (1 × 10^4 cells) or Hep3B (1 × 10^4 cells) cells was added to the base agar. HT29 and Hep3B cells were incubated at 37 °C and 5% CO2 for three weeks. The colonies were stained using 0.005% crystal violet for 1 h after which they were photographed and counted.

[2] = system: Hep3B liver cancer cells; experiment: Colony formation assay; type: cell-based, human; details: three weeks
Description: as §1

[3] = system: RAW264.7 macrophage cells; experiment: M2 marker expression in macrophages treated with conditioned medium of MA-treated cancer cells; type: cell-based; details: medium harvested from MA-treated (30 µM) cancer cells in hypoxic condition
Description: Total RNA of the cells was isolated using a GeneJET RNA Purification Kit (Thermo Fisher Scientific, Waltham, MA, USA). One microgram of RNA was reverse-transcribed using a RevertAid reverse transcriptase (Thermo Fisher Scientific, Waltham, MA, USA), and single-stranded cDNA was PCR-amplified using AccPower® PCR PreMix (Bioneer, Daejeon, Korea). The qRT-PCR was performed using the QuantiNova™ SYBR®Green PCR Kit (Qiagen, GmbH, Hilden, Germany) and a Qiagen Rotor-Gene® Q Real-Time PCR Detection System according to the manufacturer’s instructions. PCR products were separated using electrophoresis on 1.5% agarose gel containing ethidium bromide in 1 × Tris-acetate buffer and were visualized under UV light.
To investigate the formation of a capillary-like network of human umbilical vein endothelial cells (HUVECs) through the activation of tumor associated macrophages (TAMs) by lactate secreted by cancer cells, a tube formation assay was performed according to a previous study, with several modifications. For the preparation of conditioned media, HT29 colon cancer cells (3.5 × 10^5 cells) suspended in 2 mL of DMEM were seeded on 6-well plates, with or without addition of 30 µM MA, and incubated under normoxic or hypoxic conditions. […]

[4] = system: LLC tumors; experiment: Tumor allograft model, LLC cells (tumor growth, immunohistochemistry); type: in vivo, C57BL/6 mice
Description: LLC and CT26 cells were suspended separately in PBS (5 × 10^5 cells/100 µL PBS) and inoculated in subcutaneously on the back of 7-week-old C57BL/6 mice and BALB/c mice respectively (Orient Bio Inc., Seongnam, Korea; n = 7). One day after the inoculation with tumor cells, mice of the control group (n = 7) were intraperitoneally administrated 100 µL of PBS per day for 18 days. Each of the MA-treated mice were intraperitoneally administrated 0.02, 0.2, or 1 mg MA, respectively, in 100 µL PBS per 20 g body weight, each day for 18 days. All mice were euthanized 19 days after inoculation with the tumor cells, and the tumors were excised and weighed. Length (l) and width (w) of each tumor were measured using a caliper, and the respective volume (V) was calculated according to the formula V = [(l × w^2)/2]. Tumors were immediately removed from euthanized mice and prepared for histological examinations. To test liver and kidney toxicity of MA, at the end of the in vivo allograft experiment blood was collected from each mouse and serum was separated. Biochemical analyses of aspartate aminotransferase (AST), alanine aminotransferase (ALT), creatinine, and blood urea nitrogen (BUN) were performed using a commercial service (Green Cross Co., Yongin, Korea). All experimental procedures followed the Guidelines for the Care and Use of Laboratory Animals of the National Institutes of Health of Korea, and were approved by the Institutional Animal Care and Use Committee of Pusan National University, Republic of Korea (PNU-2018-1954, Date of approval: 27th June 2018).
Tumor specimens were immediately removed from euthanized mice, fixed in PBS with 3.7% formalin, and embedded in paraffin for immunohistochemical analyses. The paraffin sections were immunostained using an antibody specific to the endothelial cell marker CD31 (ab28364, Abcam, Cambridge, UK), macrophage marker CD68 (ab125212, Abcam, Cambridge, UK), and M2 phenotype macrophage marker CD206 (ab64693, Abcam, Cambridge, UK). The staining was visualized using a Dako EnVision kit (Dako, Santa Clara, CA, USA), and counterstained with hematoxylin.

[5] = biological target: LDHA (Homo sapiens, UniProt P00338); experiment: Surface plasmon resonance (SPR) biosensor analysis of LDHA binding; parameters: Full-length LDHA (residues 1–331) was obtained from cDNA by polymerase chain reaction (PCR); inferred from pET-28a vector and Ni-NTA purification; made in house; host or cells: E. coli BL21 (DE3); details: 25 °C, read-out: apparent KD of binding to LDHA
Description: The apparent dissociation constants (KD) between LDHA and Machilin A were measured using a Biacore T100 biosensor (GE Healthcare, Chicago, IL, USA). […] A total of 150 μL LDHA (50 μg/mL) in 10 mM sodium acetate (pH 5.5) was coupled via injection for 15 min at 10 μL/min, followed by injection of 1 M ethanolamine to deactivate the residual amines. To measure kinetics at 25 °C, chemical compounds with concentrations ranging from 500 to 62 μM were prepared by dilution in running buffer (10 mM HEPES, 150 mM NaCl, 0.005% v/v surfactant P20, and 1% DMSO) at a pH of 7.4. The immobilized ligand was regenerated by injecting 10 μL of 50 mM NaOH at a rate of 10 μL/min during the cycles.

C[C@H](Cc1ccc2c(c1)OCO2)[C@@H](C)Cc1ccc2c(c1)OCO2 [MA, bis(3,4-methylenedioxy)-8,8’-lignan]
number of surviving colonies [1]: significantly reduced | number of surviving colonies [2]: significantly reduced | Arg1, CD206, YM1, and VEGF expression in macrophages [3]: reduction of Arg1, CD206, YM1, and VEGF expression | expression of CD206 in macrophages in tumor tissues ([4]; LLC tumors of mice): markedly inhibited | formation of new vessels in tumors (CD31) ([4]; LLC tumors of mice): suppressed the formation of new vessels | presence of macrophages that infiltrated tumor tissues (CD68) ([4]; LLC tumors of mice): no change | volume, weight, and size of tumors ([4]; LLC, 1, 10, or 50 µg/g body weight intraperitoneally daily): significantly reduced | Kd [5]: 29 µM

— article PMC6678097, “Machilin A Inhibits Tumor Growth and Macrophage M2 Polarization Through the Reduction of Lactic Acid” (Cancers, 2019)
